Data: BindingDB's records for doi:10.1021/acsmedchemlett.9b00575 (Duke University, 2020)

Legend:
D(1A) dopamine receptor = D(1A) dopamine receptor (Homo sapiens, UniProt P21728); experiment: Agonist activity at D1R (unknown origin) transfected in human HEK293T cells assessed as increase in cAMP accumulation incubated for 2 hrs by cAMP Glo-sensor assay
D(2) dopamine receptor = D(2) dopamine receptor (Homo sapiens, UniProt P14416); experiment: Agonist activity at C-terminal RLuc8-fused D2 long receptor (unknown origin) transfected in human HEK293T cells co-expressing N-terminal Venus-tagged beta-arrestin2 assessed as increase in beta-arrestin2 recruitment measured after 5 mins in presence of coelenterazine H by BRET assay
Sequence of D(2) dopamine receptor (P14416 whole entry, the tested form may be a part): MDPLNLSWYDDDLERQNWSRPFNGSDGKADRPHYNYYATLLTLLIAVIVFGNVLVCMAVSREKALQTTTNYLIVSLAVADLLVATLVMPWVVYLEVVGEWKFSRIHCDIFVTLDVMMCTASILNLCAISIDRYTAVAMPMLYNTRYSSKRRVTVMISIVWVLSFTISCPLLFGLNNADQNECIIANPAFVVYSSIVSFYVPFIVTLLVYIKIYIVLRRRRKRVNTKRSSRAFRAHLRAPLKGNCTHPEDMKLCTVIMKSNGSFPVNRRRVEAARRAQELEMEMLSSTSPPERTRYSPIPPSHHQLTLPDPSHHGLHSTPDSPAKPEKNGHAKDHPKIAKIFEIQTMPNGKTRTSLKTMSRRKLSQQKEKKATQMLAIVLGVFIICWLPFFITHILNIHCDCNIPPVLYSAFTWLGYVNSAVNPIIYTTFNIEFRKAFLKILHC

Sequence of D(1A) dopamine receptor (P21728 whole entry, the tested form may be a part): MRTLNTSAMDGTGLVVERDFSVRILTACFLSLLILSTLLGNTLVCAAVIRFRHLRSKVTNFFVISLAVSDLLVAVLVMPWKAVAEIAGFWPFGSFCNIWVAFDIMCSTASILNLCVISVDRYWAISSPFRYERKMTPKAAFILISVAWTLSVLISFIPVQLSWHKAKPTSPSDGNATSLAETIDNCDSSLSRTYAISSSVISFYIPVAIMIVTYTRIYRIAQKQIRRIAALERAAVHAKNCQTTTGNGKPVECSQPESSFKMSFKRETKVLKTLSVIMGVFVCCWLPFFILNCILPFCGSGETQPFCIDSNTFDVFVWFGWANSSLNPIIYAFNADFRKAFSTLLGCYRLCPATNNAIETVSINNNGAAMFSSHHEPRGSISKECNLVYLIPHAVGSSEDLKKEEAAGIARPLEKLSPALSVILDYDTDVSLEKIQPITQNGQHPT

`CN1CCc2cccc3c2[C@H]1Cc1ccc2c(c1-3)OCO2` gave an EC50 (D(1A) dopamine receptor) of 100 nM.
Work on `CC(=O)Oc1c(Br)cc2c(c1OC(C)=O)-c1cccc3c1[C@@H](C2)N(C)CC3` yielded an EC50 (D(2) dopamine receptor) of 1260 nM.
